Test results: patent US7115658B2 (priority 2002, dated 2006)

Molecular target: T1, Recombinant HCV polymerase (Hepatitis C virus genotype 1b, UniProt P26663)
T1 construct: 2.5 pmoles (0.15 μg) HCV polymerase protein
Test: HCV Polymerase Inhibition Assay
Format: biochemical
Details: primer/template-directed transcription, 30 minutes at 30° C.; category symbol
Description: The above-described compounds were tested for activity with HCV polymerase. Recombinant HCV polymerase was tested for its ability to perform primer/template-directed transcription in assays that contained 30 mM tris-HCl pH 7.2, 10 mM MgCl2, 20 mM NaCl, 1 mM Dithiothreitol (DTT), 0.05% Tween-20, 1% glycerol, 5 pmoles biotin-dG12 (primer), 0.5 pmoles poly(rC)300 (template), 1 μM GTP, 0.1–0.3 uCi α-^32P-GTP, and 2.5 pmoles (0.15 μg) HCV polymerase protein in a final volume of 75 μL. Reactions were initiated by addition of enzyme and incubated 30 minutes at 30° C. Reactions were stopped by addition of 33 mM EDTA, and polynucleotide products were collected by filtration through Diethylaminoethyl (DE) Filtermat papers (Wallac). Unincorporated triphosphate was removed by washing the filters with 5% dibasic sodium phosphate. The filters were counted in a Packard Tri-Lux Microbeta scintillation counter (Packard Bioscience, Meriden, Conn.). Compounds to be tested were added at various concentrations, e.g., 1 μm to 50 μm, from stocks in 10% DMSO-water (final DMSO is 1% in reaction).
IC50 values were estimated from the primary cpm data (collected in triplicate) using the formula: cpm (I)=cpm (no inhibitor)(1−([I]/([I]+IC50))). An IC50 value represents the concentration (in μM) of a compound that provides 50% inhibition of polymerase-directed transcription in the above assay. A percent inhibition value is expressed for a compound where it was impractical to calculate an IC50 value with available data. If the IC50 estimated by the above equation was less than 200 nM, it was recalculated using the following equation, which takes into account the enzyme concentration (30 nM) in the assay: cpm(I)=cpm(no inhibitor)(1−((((I+IC50+30e−9)−sqrt(((I+IC50+30e−9)^2)−4×30e−9×I)))/((2) (30e−9))). Curve fitting was performed using the program KaleidaGraph (Synergy Software, Reading, Pa.).

T1 sequence (P26663 2420-3010): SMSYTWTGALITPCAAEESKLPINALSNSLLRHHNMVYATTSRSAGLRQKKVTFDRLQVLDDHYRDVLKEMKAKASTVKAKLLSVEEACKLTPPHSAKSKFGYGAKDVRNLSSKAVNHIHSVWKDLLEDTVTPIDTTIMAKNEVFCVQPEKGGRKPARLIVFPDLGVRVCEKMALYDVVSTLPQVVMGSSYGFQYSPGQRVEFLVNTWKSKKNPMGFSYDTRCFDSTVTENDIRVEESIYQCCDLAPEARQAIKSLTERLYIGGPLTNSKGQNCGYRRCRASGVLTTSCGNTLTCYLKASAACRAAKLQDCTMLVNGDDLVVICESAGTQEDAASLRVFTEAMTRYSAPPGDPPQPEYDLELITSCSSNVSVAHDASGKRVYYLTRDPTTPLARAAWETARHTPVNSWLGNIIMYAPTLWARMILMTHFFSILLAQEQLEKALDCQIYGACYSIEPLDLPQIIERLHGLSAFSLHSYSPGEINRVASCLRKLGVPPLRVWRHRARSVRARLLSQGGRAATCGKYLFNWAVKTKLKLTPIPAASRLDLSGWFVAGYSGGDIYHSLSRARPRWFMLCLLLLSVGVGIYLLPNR

“5-Trifluoromethyl-pyridine-2-sulfonic acid[5-tert-butyl-4-(6,6-dicyclopentyl-4-hydroxy-2-oxo-5,6-dihydro-2H-pyran-3-ylsulfanyl)-2-methyl-phenyl]-amide [Example 185]” and “6-Cyclopentyl-6-[2-(4-methoxy-phenyl)-ethyl]-3-[2-(3-methyl-isoxazol-5-yl)-acetyl]-dihydro-pyran-2,4-dione [Example 165]” fall in the same range of IC50: 10 to 50 µM for the first, 10 to 50 µM for the second.

“6-[2-(3-Chloro-4-isopropoxy-phenyl)-ethyl]-6-cyclopentyl-3-(5,7-dimethyl-[1,2,4]triazolo[1,5-a]pyrimidin-2-ylsulfanyl)-4-hydroxy-5,6-dihydro-pyran-2-one [Example 129]” and “6-[2-(3-Chloro-4-isopropoxy-phenyl)-ethyl]-6-cyclopentyl-4-hydroxy-3-(4-hydroxy-phenylsulfanyl)-5,6-dihydro-pyran-2-one [Example 130]” cannot be ordered by IC50: < 1 µM for the first, < 1 µM for the second.

“6-[2-(3-Chloro-4-isopropoxy-phenyl)-ethyl]-6-cyclopentyl-4-hydroxy-3-(4-methoxy-phenylsulfanyl)-5,6-dihydro-pyran-2-one [Example 131]” and “6-[2-(3-Chloro-4-isopropoxy-phenyl)-ethyl]-6-cyclopentyl-4-hydroxy-3-(thiazol-2-ylsulfanyl)-5,6-dihydro-pyran-2-one [Example 132]” cannot be ordered by IC50: < 1 µM for the first, < 1 µM for the second.

First: O=C1C=C(O)CC(CC2CCc3ccccc32)(C2CCCC2)O1 (mixture of isomers) [Example 15, 6-Cyclopentyl-4-hydroxy-6-indan-1-ylmethyl-5,6-dihydro-pyran-2-one]
Second: CC(=O)Nc1cc(C(C)(C)C)c(SC2=C(O)CC(CCc3ccc(O)cc3)(C3CCCC3)OC2=O)cc1C (racemic) [Example 140, (+/−)N-(5-tert-butyl-4-{6-cyclopentyl-4-hydroxy-6-[2-(4-hydroxy-phenyl)-ethyl]-2-oxo-5,6-dihydro-2H-pyran-3-ylsulfanyl}-2-methyl-phenyl)-acetamide]
The IC50 of the first is higher: > 50 µM for the first, 1 to 10 µM for the second. The second is the more potent here.

`O=C1CC(=O)OC(CCc2ccc(C(=O)N3CC[C@H](O)C3)cc2)(C2CCCC2)C1` (stereo in doubt) [Example 69, 6-Cyclopentyl-6-{2-[4-(3-hydroxy-pyrrolidine-1-carbonyl)-phenyl]-ethyl}-dihydro-pyran-2,4-dione] and `O=C1CC(=O)OC(CCc2ccc(O)cc2)(C2CCCC2)C1` (stereo not shown) [Example 1, 6-Cyclopentyl-6-[2-(4-hydroxyphenyl)ethyl]dihydropyran-2,4-dione] fall in the same range of IC50: 10 to 50 µM for the first, 10 to 50 µM for the second.

First: O=C1CC(=O)OC(CCc2cccc3ccccc23)(C2CCCC2)C1 (stereo not shown) [Example 2, 6-Cyclopentyl-6-(2-napthalen-1-ylethyl)dihydropyran-2,4-dione]
Second: COc1ccccc1CCC1(C2CCCC2)CC(=O)CC(=O)O1 (stereo not shown) [Example 4, 6-Cyclopentyl-6-[2-(2-methoxyphenyl)ethyl]dihydropyran-2,4-dione]
The IC50 of the first is higher: > 50 µM for the first, 10 to 50 µM for the second.

`C=CCOCc1ccccc1CCC1(C2CCCC2)CC(=O)CC(=O)O1` (stereo not shown) [Example 5, 6-[2-(2-Allyloxymethylphenyl)ethyl]-6-cyclopentyldihydropyran-2,4-dione] and `O=C1CC(=O)OC(CCc2ccccc2CO)(C2CCCC2)C1` (stereo not shown) [Example 6, 6-Cyclopentyl-6-[2-(2-hydroxymethylphenyl)ethyl]dihydropyran-2,4-dione] fall in the same range of IC50: 10 to 50 µM for the first, 10 to 50 µM for the second.

`COc1ccc(CCC2(C3CCCC3)CC(=O)CC(=O)O2)c(C#N)c1` (stereo not shown) [Example 7, 2-[2-(2-Cyclopentyl-4,6-dioxo-tetrahydro-pyran-2-yl)-ethyl]-5-methoxy-benzonitrile] and `COc1ccc(CCC2(C3CCCC3)CC(=O)CC(=O)O2)cn1` (stereo not shown) [Example 8, 6-cyclopentyl-6-[2-(6-methoxypyridin-3-yl)ethyl]dihydro-2H-pyran-2,4(3H)-dione] fall in the same range of IC50: 10 to 50 µM for the first, 10 to 50 µM for the second.

First: CC(C)c1cccc(CCC2(C3CCCC3)CC(=O)CC(=O)O2)c1 (stereo not shown) [Example 9, 6-Cyclopentyl-6-[2-(3-isopropyl-phenyl)-ethyl]-dihydro-pyran-2,4-dione]
Second: COC(=O)Cc1ccc(CCC2(C3CCCC3)CC(=O)CC(=O)O2)cc1 (stereo not shown) [Example 10, {4-[2-(2-Cyclopentyl-4,6-dioxo-tetrahydro-pyran-2-yl)-ethyl]-phenyl}-acetic acid methyl ester]
The IC50 of the first is lower: 1 to 10 µM for the first, 10 to 50 µM for the second.

First: CC(C)(C)c1cccc(CCC2(C3CCCC3)CC(=O)CC(=O)O2)c1 (stereo not shown) [Example 11, 6-[2-(3-tert-butyl-phenyl)-ethyl]-6-cyclopentyl-dihydro-pyran-2,4-dione]
Second: O=C1CC(=O)OC(CCc2nccs2)(C2CCCC2)C1 (stereo not shown) [Example 12, 6-Cyclopentyl-6-(2-thiazol-2-yl-ethyl)-dihydro-pyran-2,4-dione]
The IC50 of the first is lower: 1 to 10 µM for the first, > 50 µM for the second. The first is the more potent here.

First: CC(C)(C#N)c1cccc(CCC2(C3CCCC3)CC(=O)CC(=O)O2)c1 (stereo not shown) [Example 13, 2-{3-[2-(2-Cyclopentyl-4,6-dioxo-tetrahydro-pyran-2-yl)-ethyl]-phenyl}-2-methyl-propionitrile]
Second: CC(C)(C)OC(=O)NCC(C)(C)c1cccc(CCC2(C3CCCC3)CC(=O)CC(=O)O2)c1 (stereo not shown) [Example 14, (2-{3-[2-(2-Cyclopentyl-4,6-dioxo-tetrahydro-pyran-2-yl)-ethyl]-phenyl}-2-methyl-propyl)-carbamic acid tert-butyl ester]
The IC50 of the first is lower: 1 to 10 µM for the first, 10 to 50 µM for the second. The first is the more potent here.

First: COc1cccc(CCC2(C3CCCC3)CC(O)=CC(=O)O2)c1 (stereo not shown) [Example 16, 6-Cyclopentyl-4-hydroxy-6-[2-(3-methoxy-phenyl)-ethyl]-5,6-dihydropyran-2-one]
Second: CC(=O)c1ccc(CCC2(C3CCCC3)CC(O)=CC(=O)O2)cc1C (stereo not shown) [Example 17, 6-[2-(4-Acetyl-3-methyl-phenyl)-ethyl]-6cyclopentyl-4-hydroxy-5,6-dihydro-pyran-2-one]
The IC50 of the first is higher: 10 to 50 µM for the first, 1 to 10 µM for the second.

`Cc1cc(CCC2(C3CCCC3)CC(O)=CC(=O)O2)ccc1C1(C)OCCO1` (stereo not shown) [Example 18, 6-Cyclopentyl-4-hydroxy-6-{2-[3-methyl-4-(2-methyl-1,3-dioxolan-2-yl)-phenyl]-ethyl}-5,6-dihydro-pyran-2-one] and `COc1cc(CCC2(C3CCCC3)CC(O)=CC(=O)O2)ccc1O` (stereo not shown) [Example 19, 6-Cyclopentyl-4-hydroxy-6-[2-(4-hydroxy-3-methoxy-phenyl)-ethyl]-5,6-dihydro-pyran-2-one] fall in the same range of IC50: 1 to 10 µM for the first, 1 to 10 µM for the second.

Compared with `COc1cc(CCC2(C3CCCC3)CC(O)=CC(=O)O2)ccc1OCc1ccccc1` (stereo not shown) [Example 20, 6-[2-(4-Benzyloxy-3-methoxy-phenyl)-ethyl]-6-cyclopentyl-4-hydroxy-5,6-dihydro-pyran-2-one], `O=C1C=C(O)CC(CCCc2ccccc2)(C2CCCC2)O1` (stereo not shown) [Example 21, 6-Cyclopentyl-4-hydroxy-6-(3-phenyl-propyl)-5,6-dihydro-pyran-2 one] is higher in IC50: 1 to 10 µM for the first, > 50 µM for the second. The first is the more potent here.

`O=C1C=C(O)CC(CCCC2CCCCC2)(C2CCCC2)O1` (stereo not shown) [Example 22, 6-(3-Cyclohexyl-propyl)-6-cyclopentyl-4-hydroxy-5,6-dihydro-pyran-2-one] and `O=C1CC(=O)OC(CCc2ccc3c(c2)OCO3)(C2CCCC2)C1` (stereo not shown) [Example 23, 6-(2-Benzo[1,3]dioxol-5-yl-ethyl)-6-cyclopentyl-dihydro-pyran-2,4-dione] fall in the same range of IC50: 10 to 50 µM for the first, 10 to 50 µM for the second.

`CCOc1cccc(CCC2(C3CCCC3)CC(=O)CC(=O)O2)c1` (stereo not shown) [Example 24, 6-Cyclopentyl-6-[2-(3-ethoxy-phenyl)-ethyl]-dihydro-pyran-2,4-dione] and `CCOc1ccc(CCC2(C3CCCC3)CC(=O)CC(=O)O2)cc1` (stereo not shown) [Example 25, 6-Cyclopentyl-6-[2-(4-ethoxy-phenyl)-ethyl]-dihydro-pyran-2,4-dione] fall in the same range of IC50: 1 to 10 µM for the first, 1 to 10 µM for the second.

`O=C1CC(=O)OC(CCc2cccc(Cl)c2)(C2CCCC2)C1` (stereo not shown) [Example 26, 6-[2-(3-Chloro-phenyl)-ethyl]-6-cyclopentyl-dihydro-pyran-2,4-dione] and `COc1ccc(CCC2(C3CCCC3)CC(=O)CC(=O)O2)cc1Cl` (stereo not shown) [Example 27, 6-[2-(3-Chloro-4-methoxy-phenyl)-ethyl]-6-cyclopentyl-dihydro-pyran-2,4-dione] fall in the same range of IC50: 1 to 10 µM for the first, 1 to 10 µM for the second.

`CS(=O)(=O)c1ccc(CCC2(C3CCCC3)CC(=O)CC(=O)O2)cc1` (stereo not shown) [Example 28, 6-Cyclopentyl-6-[2-(4-methanesulfonyl-phenyl)-ethyl]-dihydro-pyran-2,4-dione] and `COc1ccc(CCC2(C3CCCC3)CC(=O)CC(=O)O2)cc1C` (stereo not shown) [Example 29, 6-Cyclopentyl-6-[2-(4-methoxy-3-methyl-phenyl)-ethyl]-dihydro-pyran-2,4-dione] fall in the same range of IC50: 1 to 10 µM for the first, 1 to 10 µM for the second.

With `COc1ccc(CCC2(C3CCCC3)CC(=O)CC(=O)O2)cc1F` (stereo not shown) [Example 30, 6-Cyclopentyl-6-[2-(3-fluoro-4-methoxy-phenyl)-ethyl]-dihydro-pyran-2,4-dione] the IC50 was < 1 µM.
